Test results: patent publication US10399985B2, “(Hetero)aryl imidazoles/pyrazoles for treatment of neurological disorders” (Hoffmann-La Roche Inc., priority 2014, dated 2019)

Target: human PDE10A (Homo sapiens (Human), UniProt Q9Y233)
Test: human PDE10A full length Scintillation Proximity Assay (SPA)
Assay type: biochemical
Settings: 50 nM cGMP and 50 nM [3H]-cGMP, 20 minutes at room temperature
Experimental: The following test was carried out in order to determine the activity of the compounds of the present invention. PDE10 activity of the compounds of the present invention was determined using a Scintillation Proximity Assay (SPA)-based method similar to the one previously described (Fawcett, L. et al., ProcNatl Acad Sci USA (2000) 97(7):3702-3707).
The human PDE10A full length assay was performed in 96-well micro titer plates. The reaction mixture of 50 μl contained 20 mM HEPES pH=7.5/10 mM MgCl2/0.05 mg/ml BSA (Sigma cat. # A-7906), 50 nM cGMP (Sigma, cat. # G6129) and 50 nM [3H]-cGMP (GE Healthcare, cat. # TRK392 S. A. 13.2 Ci/mmol), 3.75 ng/well PDE10A enzyme (Enzo Life Science, Lausen, Switzerland cat # SE-534) with or without a specific test compound. A range of concentrations of the potential inhibitor was used to generate data for calculating the concentration of inhibitor resulting in 50% of the effect (e.g. IC50, the concentration of the competitor inhibiting PDE10A activity by 50%). Non-specific activity was tested without the enzyme. The reaction was initiated by the addition of the substrate solution (cGMP and [3H]-cGMP) and allowed to progress for 20 minutes at room temperature. The reaction was terminated by adding 25 μl of YSi-SPA scintillation beads (GE Healthcare, cat. # RPNQ0150) in 18 mM zinc sulphate solution (stop reagent). After 1 h under shaking, the plate was centrifuged one minute at 170 g to allow beads to settle. Afterwards, radioactive counts were measured on a Perkin Elmer TopCount Scintillation plate reader.

Sequence of human PDE10A (Q9Y233 other isoform, or with tags, fused parts or gaps): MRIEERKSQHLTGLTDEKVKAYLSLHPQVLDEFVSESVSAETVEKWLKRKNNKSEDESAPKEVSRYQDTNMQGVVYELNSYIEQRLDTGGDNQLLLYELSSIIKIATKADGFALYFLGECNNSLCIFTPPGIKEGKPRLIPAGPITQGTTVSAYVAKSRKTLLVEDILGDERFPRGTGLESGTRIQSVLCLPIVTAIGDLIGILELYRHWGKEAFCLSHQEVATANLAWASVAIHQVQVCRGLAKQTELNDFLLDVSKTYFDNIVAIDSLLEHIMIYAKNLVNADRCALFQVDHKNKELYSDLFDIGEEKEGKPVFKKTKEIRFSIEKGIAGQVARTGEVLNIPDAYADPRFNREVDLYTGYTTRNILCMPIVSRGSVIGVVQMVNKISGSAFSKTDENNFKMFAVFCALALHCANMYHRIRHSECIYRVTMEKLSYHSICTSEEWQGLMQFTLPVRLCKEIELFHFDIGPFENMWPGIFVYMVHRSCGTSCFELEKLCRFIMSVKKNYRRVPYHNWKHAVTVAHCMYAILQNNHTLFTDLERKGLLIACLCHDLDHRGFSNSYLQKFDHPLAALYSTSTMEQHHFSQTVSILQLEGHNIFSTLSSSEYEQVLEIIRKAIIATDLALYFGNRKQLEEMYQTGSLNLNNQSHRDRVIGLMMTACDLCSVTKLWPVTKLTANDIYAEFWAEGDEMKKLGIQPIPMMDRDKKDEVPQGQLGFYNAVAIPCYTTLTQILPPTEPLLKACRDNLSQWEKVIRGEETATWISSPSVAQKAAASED

Row | SMILES | IC50
1 | Cc1nc2ccc(C#Cc3nc(-c4ccccc4)cn3C)nn2c1CO [Example 3, (2-Methyl-6-((1-methyl-4-phenyl-1H-imidazol-2-yl)ethynyl)imidazo[1,2-b]pyridazin-3-yl)methanol] | 1 nM
2 | Cc1nn2ccc(C#Cc3nc(-c4ccccc4)cn3C)nc2c1C [Example 4, 2,3-Dimethyl-5-((1-methyl-4-phenyl-1H-imidazol-2-yl)ethynyl)pyrazolo[1,5-a]pyrimidine] | 1.5 nM
3 | Cn1cc(-c2ccccc2)nc1C#Cc1ccc2nc(C3CC3)c(CO)n2n1 [Example 6, (2-Cyclopropyl-6-((1-methyl-4-phenyl-1H-imidazol-2-yl)ethynyl)imidazo[1,2-b]pyridazin-3-yl)methanol] | 1.9 nM
4 | Cc1c(C(F)F)nc2ccc(C#Cc3nc(-c4ccccc4)cn3C)nn12 [Example 7, 2-(Difluoromethyl)-3-methyl-6-((1-methyl-4-phenyl-1H-imidazol-2-yl)ethynyl)imidazo[1,2-b]pyridazine] | 46.6 nM
5 | Cn1cc(-c2ccccc2)nc1C#Cc1ccc2nc(C(F)(F)F)cn2n1 [Example 8, 6-(1-Methyl-4-phenyl-1H-imidazol-2-ylethynyl)-2-trifluoromethyl-imidazo[1,2-b]pyridazine] | 1 nM
6 | Cc1c(C2CC2)nc2ccc(C#Cc3nc(-c4ccccc4)cn3C)nn12 [Example 10, 2-Cyclopropyl-3-methyl-6-((1-methyl-4-phenyl-1H-imidazol-2-yl)ethynyl)imidazo[1,2-b]pyridazine] | 12 nM
7 | Cc1nc2ccc(/C=C/c3nc(-c4ccccc4)nn3C)nn2c1C [Example 11, (E)-2,3-Dimethyl-6-(2-(1-methyl-3-phenyl-1H-1,2,4-triazol-5-yl)vinyl)imidazo[1,2-b]pyridazine] | 1.3 nM
8 | Cc1c(C#N)nc2ccc(/C=C/c3nc(-c4ccccc4)cn3C)nn12 [Example 12, (E)-3-methyl-6-(2-(1-methyl-4-phenyl-1H-imidazol-2-yl)vinyl)imidazo[1,2-b]pyridazine-2-carbonitrile] | 13.8 nM
9 | Cc1nc2c(C)c(C)c(CCc3nc(-c4ccccc4)cn3C)nn2c1C [Example 14, 2,3,7,8-Tetramethyl-6-(2-(1-methyl-4-phenyl-1H-imidazol-2-yl)ethyl)imidazo[1,2-b]pyridazine] | 10.8 nM
10 | Cc1nc2ccc(CCc3nc(-c4ccccc4)cn3C)nn2c1CO [Example 15, (2-Methyl-6-(2-(1-methyl-4-phenyl-1H-imidazol-2-yl)ethyl)imidazo[1,2-b]pyridazin-3-yl)methanol] | 3.4 nM
11 | Cc1nn2ccc(CCc3nc(-c4ccccc4)cn3C)nc2c1C [Example 16, 2,3-Dimethyl-5-(2-(1-methyl-4-phenyl-1H-imidazol-2-yl)ethyl)pyrazolo[1,5-a]pyrimidine] | 2.4 nM
12 | Cc1c(C(F)(F)F)nc2ccc(CCc3nc(-c4ccccc4)cn3C)nn12 [Example 17, 3-Methyl-6-(2-(1-methyl-4-phenyl-1H-imidazol-2-yl)ethyl)-2-(trifluoromethyl)imidazo[1,2-b]pyridazine] | 20.5 nM
13 | Cn1cc(-c2ccccc2)nc1CCc1ccc2nc(C3CC3)c(CO)n2n1 [Example 18, (2-Cyclopropyl-6-(2-(1-methyl-4-phenyl-1H-imidazol-2-yl)ethyl)imidazo[1,2-b]pyridazin-3-yl)methanol] | 656 nM
14 | Cc1c(C(F)F)nc2ccc(CCc3nc(-c4ccccc4)cn3C)nn12 [Example 19, 2-(Difluoromethyl)-3-methyl-6-(2-(1-methyl-4-phenyl-1H-imidazol-2-yl)ethyl)imidazo[1,2-b]pyridazine] | 6.4 nM
15 | Cn1cc(-c2ccccc2)nc1CCc1ccc2nc(C(F)(F)F)cn2n1 [Example 20, 6-(2-(1-Methyl-4-phenyl-1H-imidazol-2-yl)ethyl)-2-(trifluoromethyl)imidazo[1,2-b]pyridazine] | 82.8 nM
16 | Cc1nc2ccc(CCc3nc(-c4ccccc4)nn3C)nn2c1C [Example 21, 2,3-Dimethyl-6-(2-(1-methyl-3-phenyl-1H-1,2,4-triazol-5-yl)ethyl)imidazo[1,2-b]pyridazine] | 27.7 nM
17 | Cc1c(C#N)nc2ccc(CCc3nc(-c4ccccc4)cn3C)nn12 [Example 22, 3-Methyl-6-[2-(1-methyl-4-phenyl-1H-imidazol-2-yl)-ethyl]-imidazo[1,2-b]pyridazine-2-carbonitrile] | 5.4 nM
18 | Cc1nc2ccc(CCc3nc(-c4ncccn4)cn3C)nn2c1C [Example 23, 2,3-Dimethyl-6-(2-(1-methyl-4-(pyrimidin-2-yl)-1H-imidazol-2-yl)ethyl)imidazo[1,2-b]pyridazine] | 9.2 nM
19 | Cc1nc2ccc(CCc3nc(-c4cccnc4)cn3C)nn2c1C [Example 24, 2,3-Dimethyl-6-(2-(1-methyl-4-(pyridin-3-yl)-1H-imidazol-2-yl)ethyl)imidazo[1,2-b]pyridazine] | 1690 nM
20 | Cc1nc2ccc(CCc3nc(-c4ccncc4)cn3C)nn2c1C [Example 25, 2,3-Dimethyl-6-(2-(1-methyl-4-(pyridin-4-yl)-1H-imidazol-2-yl)ethyl)imidazo[1,2-b]pyridazine] | 32.3 nM
21 | Cc1nc2ccc(CCc3nc(-c4cncnc4)cn3C)nn2c1C [Example 26, 2,3-Dimethyl-6-(2-(1-methyl-4-(pyrimidin-5-yl)-1H-imidazol-2-yl)ethyl)imidazo[1,2-b]pyridazine] | 98.5 nM
22 | Cc1nc2ccc(CCc3nc(-c4ccccn4)cn3C)nn2c1C [Example 27, 2,3-Dimethyl-6-(2-(1-methyl-4-(pyridin-2-yl)-1H-imidazol-2-yl)ethyl)imidazo[1,2-b]pyridazine] | 3.3 nM
23 | Cc1nc2ccc(CCc3nc(-c4ccnnc4)cn3C)nn2c1C [Example 28, 2,3-Dimethyl-6-(2-(1-methyl-4-(pyridazin-4-yl)-1H-imidazol-2-yl)ethyl)imidazo[1,2-b]pyridazine] | 81.2 nM
24 | Cc1nc2ccc(CCc3nc(-c4cnccn4)cn3C)nn2c1C [Example 29, 2,3-Dimethyl-6-(2-(1-methyl-4-(pyrazin-2-yl)-1H-imidazol-2-yl)ethyl)imidazo[1,2-b]pyridazine] | 33.2 nM
25 | Cc1cc(CCc2nc(-c3ccccn3)cn2C)nn2c(C)c(C(F)(F)F)nc12 [Example 30, 3,8-Dimethyl-6-(2-(1-methyl-4-(pyridin-2-yl)-1H-imidazol-2-yl)ethyl)-2-(trifluoromethyl)imidazo[1,2-b]pyridazine] | 3.7 nM
26 | CNC(=O)c1cc(CCc2nc(-c3ccccn3)cn2C)nn2c(C)c(C(F)(F)F)nc12 [Example 31, N,3-Dimethyl-6-(2-(1-methyl-4-(pyridin-2-yl)-1H-imidazol-2-yl)ethyl)-2-(trifluoromethyl)imidazo[1,2-b]pyridazine-8-carboxamide] | 8 nM
27 | Cc1nc2ccc(OCc3nc(-c4ccccc4)cn3C)nn2c1C [Example 32, 2,3-Dimethyl-6-((1-methyl-4-phenyl-1H-imidazol-2-yl)methoxy)imidazo[1,2-b]pyridazine] | 7.2 nM
28 | Cc1nc2ccc(OCc3nc(-c4ccccc4)nn3C)nn2c1C [Example 33, 2,3-Dimethyl-6-((1-methyl-3-phenyl-1H-1,2,4-triazol-5-yl)methoxy)imidazo[1,2-b]pyridazine] | 51.6 nM
29 | Cc1nc2c(C)c(C)c(OCc3nc(-c4ccccc4)cn3C)nn2c1C [Example 34, 2,3,7,8-Tetramethyl-6-((1-methyl-4-phenyl-1H-imidazol-2-yl)methoxy)imidazo[1,2-b]pyridazine] | 1.7 nM
